This test addresses human GPBAR1 receptor (Homo sapiens (Human), UniProt Q8TDU6). Description: functional cAMP assay in CHO-dhfr(minus) cells expressing human GPBAR1 receptors. Format: cell-based. Conditions: CHO-dhfr(minus) cells expressing human GPBAR1, 30 min at 30° C. The procedure: The final clone was verified by DNA sequence analysis. The plasmid was transfected into CHO cells deficient in dihydrofolate reductase activity (CHO-dhfr-) using Lipofectamine plus (Invitrogen). Clones were isolated in limited dilution conditions and identified by activities in the cAMP assay using lithocholic acid as agonist.
EC50 values were determined using Activity Base analysis (ID Business Solution, Limited). […] Specificity for GPBAR1 was tested in non-transfected CHO cells in the same assay as above.
For orientation: cAMP levels reflect the balance of adenylyl cyclase and phosphodiesterase activity.

Chain of human GPBAR1 receptor (Q8TDU6 whole entry): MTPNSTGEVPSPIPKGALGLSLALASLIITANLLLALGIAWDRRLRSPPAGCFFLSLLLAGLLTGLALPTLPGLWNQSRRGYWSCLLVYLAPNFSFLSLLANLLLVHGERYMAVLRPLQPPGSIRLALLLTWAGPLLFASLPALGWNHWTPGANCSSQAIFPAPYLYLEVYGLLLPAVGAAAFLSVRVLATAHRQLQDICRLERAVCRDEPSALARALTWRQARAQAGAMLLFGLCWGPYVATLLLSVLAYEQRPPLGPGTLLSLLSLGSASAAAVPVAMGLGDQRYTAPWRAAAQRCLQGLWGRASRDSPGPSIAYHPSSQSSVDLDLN

Take `CC(C)Oc1ccccc1-c1ccncc1N(C)C(=O)c1cc(C(F)(F)F)cc(C(F)(F)F)c1` [Example 35, N-[4-(2-Isopropoxy-phenyl)-pyridin-3-yl]-N-methyl-3,5-bis-trifluoromethyl-benzamide]: the midpoint of the response, the EC50, lay at 163 nM.
Under `CN(C(=O)c1cc(C(F)(F)F)cc(C(F)(F)F)c1)c1cnccc1-c1ccccc1C#N` [Example 36, N-[4-(2-Cyano-phenyl)-pyridin-3-yl]-N-methyl-3,5-bis-trifluoromethyl-benzamide] stands 362 nM; under `CN(C(=O)c1cc(C(F)(F)F)cc(C(F)(F)F)c1)c1cnccc1-c1ccc(F)cc1F` [Example 37, N-[4-(2,4-Difluoro-phenyl)-pyridin-3-yl]-N-methyl-3,5-bis-trifluoromethyl-benzamide], 40 nM.
`COc1cc(F)ccc1-c1ccncc1N(C)C(=O)c1cc(C(F)(F)F)cc(C(F)(F)F)c1` [Example 38, N-[4-(4-Fluoro-2-methoxy-phenyl)-pyridin-3-yl]-N-methyl-3,5-bis-trifluoromethyl-benzamide] gave an EC50 of 11 nM.
Under `COc1cc(F)c(F)cc1-c1ccncc1N(C)C(=O)c1cc(C(F)(F)F)cc(C(F)(F)F)c1` [Example 39, N-[4-(4,5-Difluoro-2-methoxy-phenyl)-pyridin-3-yl]-N-methyl-3,5-bis-trifluoromethyl-benzamide] stands 38 nM.
Then `CN(C(=O)c1cc(C(F)(F)F)cc(C(F)(F)F)c1)c1cnccc1-c1cccc(F)c1F` [Example 40, N-[4-(2,3-Difluoro-phenyl)-pyridin-3-yl]-N-methyl-3,5-bis-trifluoromethyl-benzamide], with 107 nM; and `COc1c(F)cccc1-c1ccncc1N(C)C(=O)c1cc(C(F)(F)F)cc(C(F)(F)F)c1` [Example 41, N-[4-(3-Fluoro-2-methoxy-phenyl)-pyridin-3-yl]-N-methyl-3,5-bis-trifluoromethyl-benzamide], with 90 nM.
Then `Cc1ccc(F)c(-c2ccncc2N(C)C(=O)c2cc(C(F)(F)F)cc(C(F)(F)F)c2)c1` [Example 42, N-[4-(2-Fluoro-5-methyl-phenyl)-pyridin-3-yl]-N-methyl-3,5-bis-trifluoromethyl-benzamide], with 119 nM; and `CN(C(=O)c1cc(C(F)(F)F)cc(C(F)(F)F)c1)c1cnccc1-c1ccc(F)cc1OCc1ccccc1` [Example 43, N-[4-(2-Benzyloxy-4-fluoro-phenyl)-pyridin-3-yl]-N-methyl-3,5-bis-trifluoromethyl-benzamide], with 2050 nM; and `COc1ncc(F)cc1-c1ccncc1N(C)C(=O)c1cc(C(F)(F)F)cc(C(F)(F)F)c1` [Example 44, N-(5-Fluoro-2-methoxy-[3,4′]bipyridinyl-3′-yl)-N-methyl-3,5-bis-trifluoromethyl-benzamide], with 30 nM.
For `COc1ncc(Cl)cc1-c1ccncc1N(C)C(=O)c1cc(C(F)(F)F)cc(C(F)(F)F)c1` [Example 45, N-(5-Chloro-2-methoxy-[3,4′]bipyridinyl-3′-yl)-N-methyl-3,5-bis-trifluoromethyl-benzamide], a half-maximal response (EC50) required 302 nM.
`CC(C)Oc1ncccc1-c1ccncc1N(C)C(=O)c1cc(C(F)(F)F)cc(C(F)(F)F)c1` [Example 46, N-(2-Isopropoxy-[3,4′]bipyridinyl-3′-yl)-N-methyl-3,5-bis-trifluoromethyl-benzamide] registered an EC50 of 924 nM.
Under `COc1nc(C)ccc1-c1ccncc1N(C)C(=O)c1cc(C(F)(F)F)cc(C(F)(F)F)c1` [Example 47, N-(2-Methoxy-6-methyl-[3,4′]bipyridinyl-3′-yl)-N-methyl-3,5-bis-trifluoromethyl-benzamide] stands 68 nM; under `CN(C(=O)c1cc(C(F)(F)F)cc(C(F)(F)F)c1)c1cnccc1-c1ccc(F)cc1O` [Example 48, N-[4-(4-Fluoro-2-hydroxy-phenyl)-pyridin-3-yl]-N-methyl-3,5-bis-trifluoromethyl-benzamide], 307 nM; under `COC(=O)COc1cc(F)ccc1-c1ccncc1N(C)C(=O)c1cc(C(F)(F)F)cc(C(F)(F)F)c1` [Example 49, (2-{3-[(3,5-Bis-trifluoromethyl-benzoyl)-methyl-amino]-pyridin-4-yl}-5-fluoro-phenoxy)-acetic acid methyl ester], 629 nM.
Then `COc1nccc(-c2ccncc2N(C)C(=O)c2cc(C(F)(F)F)cc(C(F)(F)F)c2)c1Cl` [Example 50, N-(3′-Chloro-2′-methoxy-[4,4′]bipyridinyl-3-yl)-N-methyl-3,5-bis-trifluoromethyl-benzamide], with 678 nM; and `CN(C(=O)c1cc(C(F)(F)F)cc(C(F)(F)F)c1)c1cnccc1-c1ccc(F)cc1OCC#N` [Example 51, N-[4-(2-Cyanomethoxy-4-fluoro-phenyl)-pyridin-3-yl]-N-methyl-3,5-bis-trifluoromethyl-benzamide], with 60 nM; and `CN(C(=O)c1cc(C(F)(F)F)cc(C(F)(F)F)c1)c1cnccc1-c1ccc(F)cc1OCCO` [Example 52, N-{4-[4-Fluoro-2-(2-hydroxy-ethoxy)-phenyl]-pyridin-3-yl}-N-methyl-3,5-bis-trifluoromethyl-benzamide], with 463 nM.
Then `CC(C#N)Oc1cc(F)ccc1-c1ccncc1N(C)C(=O)c1cc(C(F)(F)F)cc(C(F)(F)F)c1` (stereo not shown) [Example 53, N-{4-[2-(Cyano-methyl-methoxy)-4-fluoro-phenyl]-pyridin-3-yl}-N-methyl-3,5-bis-trifluoromethyl-benzamide], with 1100 nM; and `COc1cc(-c2ccncc2N(C)C(=O)c2cc(C(F)(F)F)cc(C(F)(F)F)c2)c(OC)nn1` [Example 54, N-[4-(3,6-Dimethoxy-pyridazin-4-yl)-pyridin-3-yl]-N-methyl-3,5-bis-trifluoromethyl-benzamide], with 1970 nM.
`CN(C(=O)c1cc(C(F)(F)F)cc(C(F)(F)F)c1)c1cnccc1-c1cc(F)cnc1Cl` [Example 55, N-(2-Chloro-5-fluoro-[3,4′]bipyridinyl-3′-yl)-N-methyl-3,5-bis-trifluoromethyl-benzamide] came in with an EC50 of 435 nM.
Under `CN(C(=O)c1cc(C(F)(F)F)cc(C(F)(F)F)c1)c1cnccc1-c1ccnc(Cl)c1F` [Example 56, N-(2′-Chloro-3′-fluoro-[4,4′]bipyridinyl-3-yl)-N-methyl-3,5-bis-trifluoromethyl-benzamide] stands 430 nM; under `Cc1cccnc1-c1ccncc1N(C)C(=O)c1cc(C(F)(F)F)cc(C(F)(F)F)c1` [Example 57, N-Methyl-N-(3-methyl-[2,4′]bipyridinyl-3′-yl)-3,5-bis-trifluoromethyl-benzamide], 351 nM.
Then `COc1ccc(F)cc1-c1ccncc1N(C)C(=O)c1cc(C(F)(F)F)cc(C(F)(F)F)c1` [Example 58, N-[4-(5-Fluoro-2-methoxy-phenyl)-pyridin-3-yl]-N-methyl-3,5-bis-trifluoromethyl-benzamide], with 26 nM.
Compound `COc1c(F)cc(F)cc1-c1ccncc1N(C)C(=O)c1cc(C(F)(F)F)cc(C(F)(F)F)c1` [Example 59, N-[4-(3,5-Difluoro-2-methoxy-phenyl)-pyridin-3-yl]-N-methyl-3,5-bis-trifluoromethyl-benzamide] yielded an EC50 of 190 nM.

The EC50 is the concentration giving half of the maximal effect. A low value points to an effect from little substance.
